The target in one experiment is T1, Human HDAC4 (Homo sapiens, UniProt P56524).
T1 construct: amino acids 627-1085 with N-terminal GST tag; GST (N); host or cells: baculovirus expression system
The experiment is described as follows: HDAC4 biochemical assay, class IIa-specific substrate. To be noted: read-out: HDAC Isoform IC50 (nM) 4. The procedure, abridged: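 Two-step fluorogenic read-out: deacetylated BOC-Lys(trifluoroacetyl)-AMC (50 μM) was digested by developer and measured at Ex/Em 360/460. Deacetylation by 0.004 ng/ul HDAC4 (aa 627-1085, N-terminal GST) ran 30 min at room temperature, pH 8.0 Tris buffer, 1 mg/mL BSA, 1% DMSO.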

Another experiment concerns the target T2, Recombinant human HDAC6 (Homo sapiens, UniProt Q9UBN7).
T2 construct: full length, MW=159 kDa; GST (N); host or cells: Sf9 insect cells (baculovirus)
T2 sequence (Q9UBN7 1-1215): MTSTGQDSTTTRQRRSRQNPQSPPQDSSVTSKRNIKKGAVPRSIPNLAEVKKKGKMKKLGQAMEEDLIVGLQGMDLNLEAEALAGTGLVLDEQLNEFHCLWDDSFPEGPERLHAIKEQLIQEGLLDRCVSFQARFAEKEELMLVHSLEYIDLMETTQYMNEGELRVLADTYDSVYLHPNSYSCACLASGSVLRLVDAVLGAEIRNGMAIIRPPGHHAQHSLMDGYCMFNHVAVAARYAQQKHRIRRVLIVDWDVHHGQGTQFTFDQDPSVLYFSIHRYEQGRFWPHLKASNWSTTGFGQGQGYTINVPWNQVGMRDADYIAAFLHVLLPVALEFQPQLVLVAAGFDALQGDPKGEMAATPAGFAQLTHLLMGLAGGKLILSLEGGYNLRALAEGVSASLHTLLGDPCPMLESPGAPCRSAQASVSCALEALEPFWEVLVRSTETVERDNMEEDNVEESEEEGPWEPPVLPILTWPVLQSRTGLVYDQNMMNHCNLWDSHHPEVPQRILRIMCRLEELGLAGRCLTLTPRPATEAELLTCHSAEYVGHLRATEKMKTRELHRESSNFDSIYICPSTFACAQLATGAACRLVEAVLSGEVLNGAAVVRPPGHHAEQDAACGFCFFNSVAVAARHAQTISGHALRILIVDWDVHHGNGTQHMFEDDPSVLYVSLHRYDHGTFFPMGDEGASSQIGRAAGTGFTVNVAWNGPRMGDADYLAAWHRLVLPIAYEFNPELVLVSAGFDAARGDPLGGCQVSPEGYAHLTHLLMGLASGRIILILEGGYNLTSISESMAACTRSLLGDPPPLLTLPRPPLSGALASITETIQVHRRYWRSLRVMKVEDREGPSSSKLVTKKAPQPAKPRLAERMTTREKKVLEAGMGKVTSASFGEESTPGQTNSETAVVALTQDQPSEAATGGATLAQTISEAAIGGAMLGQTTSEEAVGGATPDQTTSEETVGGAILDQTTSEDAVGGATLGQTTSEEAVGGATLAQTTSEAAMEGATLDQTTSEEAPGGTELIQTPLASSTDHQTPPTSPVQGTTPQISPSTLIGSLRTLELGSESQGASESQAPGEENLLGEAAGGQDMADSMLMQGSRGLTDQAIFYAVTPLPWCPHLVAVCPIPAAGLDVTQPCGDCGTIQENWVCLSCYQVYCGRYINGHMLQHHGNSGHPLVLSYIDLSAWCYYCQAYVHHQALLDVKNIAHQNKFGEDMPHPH
The experiment is described as follows: HDAC6 biochemical assay, AMC-labeled peptide substrate. To be noted: HDAC6; read-out: HDAC Isoform IC50 (nM) 6. The procedure, abridged: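 Two-step fluorogenic read-out: enzyme deacetylates 50 μM RHKK(Ac)AMC for 1 h at 30° C in pH 8.0 Tris buffer with BSA and 1% DMSO, then developer cleavage gives signal at Ex 360/Em 460. Enzyme: 0.3 ng/ul recombinant full-length human HDAC6, GST-tagged, Sf9-expressed.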

In experiment [1] the target is T3, Complex of human HDAC3 and human NCOR2 (Homo sapiens, UniProt O15379).
T3 construct: full length with C-terminal His tag, MW=49.7 kDa; His (C); host or cells: baculovirus expression system (co-expressed)
T3 sequence (O15379 whole entry): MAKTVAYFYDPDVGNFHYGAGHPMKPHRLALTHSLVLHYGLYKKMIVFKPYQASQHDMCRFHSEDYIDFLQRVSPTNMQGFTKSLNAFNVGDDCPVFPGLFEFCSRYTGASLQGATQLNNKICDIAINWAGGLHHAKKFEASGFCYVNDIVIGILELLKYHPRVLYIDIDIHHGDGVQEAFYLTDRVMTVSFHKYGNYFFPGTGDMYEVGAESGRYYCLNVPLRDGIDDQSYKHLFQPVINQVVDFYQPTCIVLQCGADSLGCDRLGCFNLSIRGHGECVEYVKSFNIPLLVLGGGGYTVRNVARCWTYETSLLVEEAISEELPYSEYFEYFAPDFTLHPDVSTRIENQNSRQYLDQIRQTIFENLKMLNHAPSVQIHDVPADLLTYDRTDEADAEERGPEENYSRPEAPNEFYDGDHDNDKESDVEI
T3 sequence (Q9Y618 395-489 partner limits assumed): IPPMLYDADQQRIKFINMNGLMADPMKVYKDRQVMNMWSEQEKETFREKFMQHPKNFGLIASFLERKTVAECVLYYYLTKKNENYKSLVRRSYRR
As to the kind of experiment: HDAC3 biochemical assay, AMC-labeled peptide substrate. To be noted: read-out: HDAC Isoform IC50 (nM) 3. The method, boiled down:
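Two-stage fluorogenic read: compounds incubated 1 h at 30° C with 50 μM RHKK(Ac)AMC and 0.1 ng/ul HDAC3–NCOR2(395-489) complex (Tris pH8.0, NaCl, KCl, MgCl2, BSA, 1% DMSO). Developer digestion of deacetylated product gives signal at Ex 360/Em 460.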

The next experiment has as its target T4, Human HDAC9 (Homo sapiens, UniProt Q9UKV0).
T4 construct: amino acids 604-1066 with C-terminal His tag; His (C); host or cells: baculovirus expression system
The experiment is described as follows: HDAC9 biochemical assay, class IIa-specific substrate. To be noted: read-out: HDAC Isoform IC50 (nM) 9. The method, boiled down: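 HDAC9 residues 604-1066 (C-terminal His tag, baculovirus-expressed) at 0.06 ng/ul with 50 μM class IIa substrate Boc-Lys(trifluoroacetyl)-AMC in Tris-HCl pH 8.0 buffer with BSA and 1% DMSO. 30 min at room temperature, then developer added; fluorescence read at 360/460 nm Ex/Em.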

Bounds are passed on as bounds.

T1 sequence (P56524 627-1084 limits assumed): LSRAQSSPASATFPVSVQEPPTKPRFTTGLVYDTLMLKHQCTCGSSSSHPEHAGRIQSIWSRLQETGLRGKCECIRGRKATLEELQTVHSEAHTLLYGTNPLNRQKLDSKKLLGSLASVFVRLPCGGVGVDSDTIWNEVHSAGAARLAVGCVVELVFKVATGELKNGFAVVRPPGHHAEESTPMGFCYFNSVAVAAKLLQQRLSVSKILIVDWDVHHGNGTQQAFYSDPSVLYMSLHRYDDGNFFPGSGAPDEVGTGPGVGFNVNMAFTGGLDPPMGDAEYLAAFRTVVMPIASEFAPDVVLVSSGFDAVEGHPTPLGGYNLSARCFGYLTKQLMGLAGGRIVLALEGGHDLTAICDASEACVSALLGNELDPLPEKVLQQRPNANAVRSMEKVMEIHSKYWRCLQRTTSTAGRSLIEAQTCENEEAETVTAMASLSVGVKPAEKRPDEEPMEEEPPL
T4 sequence (Q9UKV0 604-1066 isoform Q9UKV0-5): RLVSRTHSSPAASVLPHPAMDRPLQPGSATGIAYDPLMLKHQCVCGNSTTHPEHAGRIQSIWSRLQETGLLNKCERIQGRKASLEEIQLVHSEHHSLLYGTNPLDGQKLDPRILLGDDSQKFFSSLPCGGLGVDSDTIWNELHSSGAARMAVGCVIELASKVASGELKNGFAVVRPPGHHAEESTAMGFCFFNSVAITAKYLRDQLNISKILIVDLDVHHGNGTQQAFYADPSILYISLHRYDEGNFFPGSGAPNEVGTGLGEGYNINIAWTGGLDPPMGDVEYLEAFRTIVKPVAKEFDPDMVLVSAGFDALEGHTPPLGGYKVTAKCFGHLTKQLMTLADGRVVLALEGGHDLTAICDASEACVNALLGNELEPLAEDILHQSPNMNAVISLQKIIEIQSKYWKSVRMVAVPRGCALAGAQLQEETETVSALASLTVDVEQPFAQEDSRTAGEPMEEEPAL

As for `FC(F)(F)c1nc(-c2ccc(CN(c3cnccn3)c3cc(CN4CCCC4)ccn3)s2)no1` [Example GG, N-{4-[(Pyrrolidin-1-yl)methyl]pyridin-2-yl}-N-({5-[5-(trifluoromethyl)-1,2,4-oxadiazol-3-yl]thiophen-2-yl}methyl)pyrazin-2-amine], the IC50 (as a rule, the concentration that inhibits the measured activity by half) on Human HDAC4 is no more than 1000 nM; on Recombinant human HDAC6, no more than 1000 nM; in experiment [1] it was greater than 10000 nM; at Human HDAC9, no more than 10000 nM.
On to `COC1CN(Cc2ccnc(N(Cc3ccc(-c4noc(C(F)(F)F)n4)s3)c3cnccn3)c2)C1` [Example GH, N-{4-[(3-Methoxyazetidin-1-yl)methyl]pyridin-2-yl}-N-({5-[5-(trifluoromethyl)-1,2,4-oxadiazol-3-yl]thiophen-2-yl}methyl)pyrazin-2-amine], for which the IC50 was no more than 10000 nM at Human HDAC4, no more than 500 nM on Recombinant human HDAC6, greater than 10000 nM in experiment [1] and no more than 10000 nM at Human HDAC9.
Consider `FC(F)(F)c1nc(-c2ccc(CN(c3cnccn3)c3cc(CN4CCOCC4)ccn3)s2)no1` [Example GI, N-{4-[(Morpholin-4-yl)methyl]pyridin-2-yl}-N-({5-[5-(trifluoromethyl)-1,2,4-oxadiazol-3-yl]thiophen-2-yl}methyl)pyrazin-2-amine], for which the 50% inhibitory concentration (IC50) on Human HDAC4 was no more than 10000 nM; at Recombinant human HDAC6, no more than 1000 nM; in experiment [1] it was greater than 10000 nM; at Human HDAC9 it was no more than 10000 nM.
`O=C(c1cnnc(N(Cc2ccc(-c3noc(C(F)(F)F)n3)s2)c2cnccn2)c1)N1CC(C(F)(F)F)C1` [Example GJ, N-(Pyrazin-2-yl)-N-({5-[5-(trifluoromethyl)-1,2,4-oxadiazol-3-yl]thiophen-2-yl}methyl)-5-[3-(trifluoromethyl)azetidine-1-carbonyl]pyridazin-3-amine]: the concentration for half-maximal inhibition (IC50) at Human HDAC4 is no more than 1000 nM; at Recombinant human HDAC6, no more than 500 nM; in experiment [1] it was no more than 10000 nM; at Human HDAC9 it was no more than 10000 nM.
`O=C(c1cnnc(N(Cc2ccc(-c3noc(C(F)(F)F)n3)s2)c2cnccn2)c1)N1CC(C(F)F)C1` [Example GK, 5-[3-(Difluoromethyl)azetidine-1-carbonyl]-N-(pyrazin-2-yl)-N-({5-[5-(trifluoromethyl)-1,2,4-oxadiazol-3-yl]thiophen-2-yl}methyl)pyridazin-3-amine]: the IC50 on Human HDAC4 is no more than 1000 nM; at Recombinant human HDAC6 it was no more than 500 nM; in experiment [1], no more than 10000 nM; on Human HDAC9, no more than 10000 nM.
Consider `COC1(C(F)(F)F)CN(C(=O)c2cnnc(N(Cc3ccc(-c4noc(C(F)(F)F)n4)s3)c3cnccn3)c2)C1` [Example GL, 5-[3-Methoxy-3-(trifluoromethyl)azetidine-1-carbonyl]-N-(pyrazin-2-yl)-N-({5-[5-(trifluoromethyl)-1,2,4-oxadiazol-3-yl]thiophen-2-yl}methyl)pyridazin-3-amine], for which the IC50 on Human HDAC4 is no more than 10000 nM; at Recombinant human HDAC6, no more than 500 nM; in experiment [1] it was no more than 10000 nM; at Human HDAC9 it was no more than 10000 nM.
As for `FC(F)(F)c1nc(-c2ccc(CN(c3cnccn3)c3cc(-c4ccccn4)cnn3)s2)no1` [Example GM, N-(Pyrazin-2-yl)-5-(pyridin-2-yl)-N-({5-[5-(trifluoromethyl)-1,2,4-oxadiazol-3-yl]thiophen-2-yl}methyl)pyridazin-3-amine], the IC50 on Human HDAC4 is no more than 10000 nM; on Recombinant human HDAC6, no more than 500 nM; in experiment [1], greater than 10000 nM; on Human HDAC9 it was no more than 10000 nM.
For `Cc1cnnc(N(Cc2ccc(-c3noc(C(F)(F)F)n3)s2)c2cnccn2)c1` [Example GN, 5-Methyl-N-(pyrazin-2-yl)-N-({5-[5-(trifluoromethyl)-1,2,4-oxadiazol-3-yl]thiophen-2-yl}methyl)pyridazin-3-amine], the half-maximal inhibitory concentration (IC50) at Human HDAC4 was no more than 1000 nM; at Recombinant human HDAC6, no more than 500 nM; in experiment [1], greater than 10000 nM; on Human HDAC9, no more than 10000 nM.
Take `NC(=O)c1nccnc1N(Cc1ccc(-c2noc(C(F)(F)F)n2)s1)c1cnccn1` [Example GO, 3-[(Pyrazin-2-yl)({5-[5-(trifluoromethyl)-1,2,4-oxadiazol-3-yl]thiophen-2-yl}methyl)amino]pyrazine-2-carboxamide]: the half-inhibitory concentration (IC50) on Human HDAC4 was no more than 10000 nM; on Recombinant human HDAC6 it was no more than 1000 nM; in experiment [1], greater than 10000 nM; on Human HDAC9 it was no more than 10000 nM.
On to `O=C(c1nccnc1N(Cc1ccc(-c2noc(C(F)(F)F)n2)s1)c1cnccn1)N1CCC1` [Example GP, 3-(Azetidine-1-carbonyl)-N-(pyrazin-2-yl)-N-({5-[5-(trifluoromethyl)-1,2,4-oxadiazol-3-yl]thiophen-2-yl}methyl)pyrazin-2-amine], for which the IC50 on Human HDAC4 was no more than 10000 nM; on Recombinant human HDAC6, no more than 1000 nM; in experiment [1], greater than 10000 nM; on Human HDAC9 it was no more than 10000 nM.
Regarding `O=C(c1nccnc1N(Cc1ccc(-c2noc(C(F)(F)F)n2)s1)c1cnccn1)N1CC(O)(C(F)(F)F)C1` [Example GQ, 1-{3-[(Pyrazin-2-yl)({5-[5-(trifluoromethyl)-1,2,4-oxadiazol-3-yl]thiophen-2-yl}methyl)amino]pyrazine-2-carbonyl}-3-(trifluoromethyl)azetidin-3-ol], the IC50 was no more than 10000 nM at Human HDAC4, no more than 1000 nM at Recombinant human HDAC6, greater than 10000 nM in experiment [1] and no more than 10000 nM at Human HDAC9.
`O=C(c1cncc(N(Cc2ccc(-c3noc(C(F)(F)F)n3)s2)c2cnccn2)c1)N1CCOCC1` [Example GR, N-[5-(Morpholine-4-carbonyl)pyridin-3-yl]-N-({5-[5-(trifluoromethyl)-1,2,4-oxadiazol-3-yl]thiophen-2-yl}methyl)pyrazin-2-amine]: the IC50 at Human HDAC4 was no more than 1000 nM; on Recombinant human HDAC6, no more than 10000 nM; in experiment [1], greater than 10000 nM; at Human HDAC9, no more than 10000 nM.
Take `CC(C)(O)c1cnnc(N(Cc2ccc(-c3noc(C(F)(F)F)n3)s2)c2cnccn2)c1` [Example GS, 2-{6-[(Pyrazin-2-yl)({5-[5-(trifluoromethyl)-1,2,4-oxadiazol-3-yl]thiophen-2-yl}methyl)amino]pyridazin-4-yl}propan-2-ol]: the IC50 was no more than 1000 nM at Human HDAC4, no more than 500 nM on Recombinant human HDAC6, greater than 10000 nM in experiment [1] and no more than 10000 nM at Human HDAC9.
For `CC1(c2cnnc(N(Cc3ccc(-c4noc(C(F)(F)F)n4)s3)c3cnccn3)c2)COC1` [Example GT, 5-(3-Methyloxetan-3-yl)-N-(pyrazin-2-yl)-N-({5-[5-(trifluoromethyl)-1,2,4-oxadiazol-3-yl]thiophen-2-yl}methyl)pyridazin-3-amine], in that order: no more than 10000 nM, no more than 500 nM, greater than 10000 nM and no more than 10000 nM.
